Source: patent US7671061B2, “Methods and compositions for treating pain” (Hydra Biosciences, Inc., priority 2005, dated 2010)

Key:
hTRPA1 [1] = target: T1, hTRPA1 (Homo sapiens, UniProt O75762, K186N); assay: TRPA1 patch clamp (perforated patch, AITC-activated current); format: cell-based
T1 construct: expressed in transfected cells; host or cells: HEK293/TREx (Invitrogen), induced with tetracycline
Source text: Patch clamp experiments permit the detection of currents through the TRPA1 channel in the cell line described above. To permit recording of current at a stable level and prevent the “rundown” observed by other labs, it is necessary to use the perforated patch technique, which prevents dialysis of the cytoplasm with the pipette solution. In normal whole-cell patch clamp recordings, a glass electrode is brought into contact with a single cell and a high-resistance (gigaohm) seal is established with the cell membrane. The membrane is then ruptured to achieve the whole-cell configuration, permitting control of the voltage of the cell membrane and measurement of currents flowing across the membrane using the amplifier attached to the electrode and resulting in the replacement of cytoplasm with the pipette solution. In contrast, in the perforated patch mode, an antibiotic, amphotericin, is present in the pipette solution and diffuses into contact with the cell after the seal is achieved, over the course of several minutes. The amphotericin forms ion-permeable pores in the membrane under the pipette, permitting passage of some ions but maintaining most native cytosolic components. A perfusion system permits control of the extracellular solution, including the addition of blockers and activators of the current. The current can be activated by addition of 5 μM AITC to the solution. […] In some cases, cells were grown in low density overnight on glass coverslips. Patch clamp recordings were made in the whole-cell mode with a holding potential of −40 mV. Every 5 seconds, a voltage ramp was applied from −120 to +100 mV, 400 ms in duration. Currents elicited were quantified at −80 mV and +80 mV. […] The external solution consisted of 150 mM NaCl, 4.5 mM KCl, 3 mM MgCl2, 10 mM HEPES, […], 1 mM EGTA, pH 7.4. Upon addition of AITC, TRPA1 current was induced only in TRPA1-expressing cells and not in parental HEK293 TREx cells. Removal of the AITC stimulus causes most of the current to go away. Potential blockers were tested for ability to block both inward and outward currents in the continued presence of AITC.

hTRPA1 [2] = target: T1, hTRPA1; assay: High throughput Ca2+ fluorescence (Fluo4) assay, AITC stimulation; format: cell-based
Summary of the method: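 Tetracycline-induced HEK293/TREx cells loaded with 1 μM Fluo4/AM for 60 min at room temperature. Compound added for 2 min after a 4-frame baseline, then AITC; fluorescence followed ~3 min.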

[3] = Table 1, read-out: hTRPA1 Patch IC50
[4] = Table 1, read-out: hTRPA1 Fluo4 IC50
[5] = Table 2, inward current, read-out: hTRPA1 Patch Inwd IC50
[6] = Table 2, read-out: hTRPA1 Fluor IC50

T1 sequence (O75762 whole entry K186N): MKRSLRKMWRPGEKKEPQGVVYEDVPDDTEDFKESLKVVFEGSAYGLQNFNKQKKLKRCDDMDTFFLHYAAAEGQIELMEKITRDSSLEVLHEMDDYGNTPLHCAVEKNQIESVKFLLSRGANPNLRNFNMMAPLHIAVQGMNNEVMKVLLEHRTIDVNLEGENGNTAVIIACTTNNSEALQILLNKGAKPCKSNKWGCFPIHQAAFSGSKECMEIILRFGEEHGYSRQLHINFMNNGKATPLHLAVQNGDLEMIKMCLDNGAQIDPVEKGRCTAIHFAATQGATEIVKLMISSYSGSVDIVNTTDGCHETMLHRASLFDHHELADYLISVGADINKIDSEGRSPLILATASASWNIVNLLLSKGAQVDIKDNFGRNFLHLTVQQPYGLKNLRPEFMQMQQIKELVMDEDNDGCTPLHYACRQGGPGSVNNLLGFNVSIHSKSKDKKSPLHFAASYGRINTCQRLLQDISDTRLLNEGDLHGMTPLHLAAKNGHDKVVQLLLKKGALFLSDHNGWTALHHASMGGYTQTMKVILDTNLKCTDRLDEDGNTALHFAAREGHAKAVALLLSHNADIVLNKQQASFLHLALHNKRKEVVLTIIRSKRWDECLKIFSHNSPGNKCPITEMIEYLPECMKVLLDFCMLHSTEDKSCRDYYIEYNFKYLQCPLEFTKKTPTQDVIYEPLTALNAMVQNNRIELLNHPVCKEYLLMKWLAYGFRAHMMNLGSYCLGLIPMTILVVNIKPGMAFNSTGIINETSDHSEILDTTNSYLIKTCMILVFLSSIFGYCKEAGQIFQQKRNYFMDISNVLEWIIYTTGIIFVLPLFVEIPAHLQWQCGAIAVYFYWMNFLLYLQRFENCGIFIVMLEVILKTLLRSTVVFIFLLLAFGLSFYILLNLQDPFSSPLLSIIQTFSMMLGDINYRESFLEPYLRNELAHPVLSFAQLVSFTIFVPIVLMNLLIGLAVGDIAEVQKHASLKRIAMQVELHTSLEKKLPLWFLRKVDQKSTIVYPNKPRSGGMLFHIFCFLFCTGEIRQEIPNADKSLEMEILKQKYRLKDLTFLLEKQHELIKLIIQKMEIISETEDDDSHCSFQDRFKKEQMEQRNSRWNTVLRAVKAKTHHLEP

| SMILES | IC50 (hTRPA1 [1]; [3]) | IC50 (hTRPA1 [2]; [4]) | IC50 (hTRPA1 [1]; [5]) | further results |
| --- | --- | --- | --- | --- |
| COC(=O)C1=C(C)NC(=S)NC1c1ccccc1 (stereo not shown) | > 10000 nM | ≤ 5 µM |  |  |
| CCOc1ccc(C2NC(=S)NC(C)=C2C(=O)OC)cc1 (stereo not shown) | ≤ 10000 nM | ≤ 5 µM |  |  |
| CCOC(=O)C1=C(C)NC(=S)NC1c1cccc(O)c1 (stereo not shown) | > 10000 nM | ≤ 10 µM |  |  |
| CCOC(=O)C1=C(c2ccccc2)NC(=S)NC1c1ccc(OC)cc1 (stereo not shown) | > 10000 nM | > 10 µM |  |  |
| CCOC(=O)C1=C(c2ccccc2)NC(=S)NC1c1ccc(OC(C)C)cc1 (stereo not shown) | > 10000 nM | ≥ 20 µM |  |  |
| CCOC(=O)C1=C(c2ccccc2)NC(=S)NC1c1cccc(OC)c1 (stereo not shown) | ≤ 5000 nM | ≤ 5 µM |  |  |
| CCOC(=O)C1=C(C)NC(=S)NC1c1cccc(OCC)c1 (stereo not shown) | ≤ 1000 nM | ≤ 5 µM |  |  |
| CCOC(=O)C1=C(c2ccccc2)NC(=S)NC1c1cc(C)ccc1C (stereo not shown) | > 10000 nM | > 10 µM |  |  |
| CCOC(=O)C1=C(c2ccccc2)NC(=S)NC1c1ccc(Cl)c(Cl)c1 (stereo not shown) | > 10000 nM | > 10 µM |  |  |
| COC(=O)C1=C(c2ccccc2)NC(=S)NC1c1ccc(F)cc1 (stereo not shown) | > 10000 nM | > 10 µM |  |  |
| COC(=O)C1=C(c2ccccc2)NC(=S)NC1c1ccccc1 (stereo not shown) | ≤ 5000 nM | ≤ 5 µM |  |  |
| CCCC1=C(C(=O)OCC)C(c2ccccc2Cl)NC(=O)N1 (stereo not shown) | > 10000 nM | ≤ 5 µM |  |  |
| COC(=O)C1=C(C)N(C)C(=O)NC1c1cccc(Br)c1 (stereo not shown) | > 10000 nM | ≤ 5 µM |  |  |
| COC(=O)C1=C(C)N(C)C(=O)NC1c1ccc(F)c(F)c1 (stereo not shown) | ≤ 1000 nM | ≤ 5 µM |  |  |
| CCOC(=O)C1=C(C)NC(=S)NC1c1ccccc1C (stereo not shown) | ≤ 5000 nM | ≤ 5 µM |  |  |
| COC(=O)C1=C(C)N(C)C(=O)NC1c1cc(O)ccc1Br (stereo not shown) | ≤ 5000 nM | ≤ 5 µM |  |  |
| COC(=O)C1=C(C)N(C)C(=O)NC1c1ccc(O)c(Cl)c1 (stereo not shown) | > 10000 nM | ≤ 5 µM |  |  |
| CC1=C(C(=O)OC(C)C)C(c2ccc(C)c(Br)c2)NC(=O)N1 (stereo not shown) | ≤ 500 nM | ≤ 5 µM |  |  |
| COC(=O)C1=C(c2ccccc2)NC(=S)NC1c1ccc(OC)c(OC)c1 (stereo not shown) | ≤ 10000 nM |  |  |  |
| CC(C)NC(=O)c1ccccc1NC(=O)Cn1cnc2c1c(=O)n(C)c(=O)n2C [Compound 385] |  |  |  | IC50 (hTRPA1 [2]; [6]): > 10 µM |
| Cn1c(=O)c2c(ncn2CC(=O)Nc2cc(F)cc(F)c2)n(C)c1=O [Compound 386] |  |  |  | IC50 (hTRPA1 [2]; [6]): ≤ 5 µM |
| CC(C)c1ccc(NC(=O)C(C)(C)n2cnc3c2c(=O)n(C)c(=O)n3C)cc1 [Compound 387, 2-(1,3-dimethyl-2,6-dioxo-1,2,3,6-tetrahydropurin-7-yl)-N-(4-isopropylphenyl)-2-methylpropanamide] |  |  | > 10000 nM |  |
| CC(C)c1ccc(NC(=O)Cn2cnc3c2c(=O)[nH]c(=O)n3C)cc1 [Compound 388, N-(4-isopropylphenyl)-2-(3-methyl-2,6-dioxo-1,2,3,6-tetrahydropurin-7-yl)acetamide] |  |  | > 10000 nM |  |
| COc1ccc(CCNC(=O)Cn2cnc3c2c(=O)n(C)c(=O)n3C)cc1OC [Compound 390] |  |  |  | IC50 (hTRPA1 [1]; hTRPA1 Patch Inwd IC50 (nM), Table 2, inward current): ≤ 10000 nM |
| CC(C)c1ccc(NC(=O)Cn2cnc3[nH]c(=O)n(C)c(=O)c32)cc1 [Compound 391, N-(4-isopropylphenyl)-2-(1-methyl-2,6-dioxo-1,2,3,6-tetrahydropurin-7-yl)acetamide] |  |  | ≤ 10000 nM |  |
| CC(C)c1ccc(N(C)C(=O)Cn2cnc3[nH]c(=O)n(C)c(=O)c32)cc1 [Compound 392, N-(4-isopropylphenyl)-N-methyl-2-(1-methyl-2,6-dioxo-1,2,3,6-tetrahydropurin-7-yl)acetamide] |  |  | > 10000 nM |  |
| Cn1c(=O)[nH]c(=O)c2c1ncn2CC(=O)Nc1ccc(C2CCCC2)cc1 [Compound 394, N-(4-cyclopentylphenyl)-2-(3-methyl-2,6-dioxo-1,2,3,6-tetrahydropurin-7-yl)acetamide] |  |  | ≤ 5000 nM |  |
| CC(C)c1ccc(NC(=O)Cn2cnc3[nH]c(=O)[nH]c(=O)c32)cc1 [Compound 399, 2-(2,6-dioxo-1,2,3,6-tetrahydropurin-7-yl)-N-(4-isopropylphenyl)acetamide] |  |  | ≤ 10000 nM |  |
| CCOC(=O)C1=C(c2ccccc2)NC(=S)NC1c1cc(O)ccc1Br (stereo not shown) [drawing 264] | ≤ 1000 nM |  |  |  |
| CCOC(=O)C1=C(c2ccccc2)NC(=S)NC1c1cc(O)ccc1Br (stereo not shown) [drawing 265] | ≤ 500 nM |  |  |  |

Second part, led by results:

| IC50 (hTRPA1 [1]; [3]) | IC50 (hTRPA1 [2]; [4]) | IC50 (hTRPA1 [1]; [5]) | SMILES | further results |
| --- | --- | --- | --- | --- |
|  |  | > 10000 nM | Cn1c(=O)c2c(ncn2CC(=O)NCc2ccccc2Cl)n(C)c1=O [Compound 236] |  |
|  |  | ≤ 5000 nM | Cn1c(=O)c2c(ncn2CC(=O)Nc2ccc3c(c2)CCC3)n(C)c1=O [Compound 240] |  |
|  |  | ≤ 5000 nM | COc1ccc(Cl)cc1NC(=O)Cn1cnc2c1c(=O)n(C)c(=O)n2C [Compound 285] |  |
|  |  | > 10000 nM | Cn1c(=O)c2c(ncn2CC(=O)NCCc2ccc(S(N)(=O)=O)cc2)n(C)c1=O [Compound 389] |  |
|  |  | > 10000 nM | CC(C)c1ccc(N(C)C(=O)Cn2cnc3c2c(=O)n(C)c(=O)n3C)cc1 [Compound 393, 2-(1,3-dimethyl-2,6-dioxo-1,2,3,6-tetrahydropurin-7-yl)-N-(4-isopropylphenyl)-N-methylacetamide] |  |
|  |  | ≤ 500 nM | Cn1c(=O)c2c(ncn2CC(=O)Nc2ccc(C3CCCC3)cc2)n(C)c1=O [Compound 395, N-(4-cyclopentylphenyl)-2-(1,3-dimethyl-2,6-dioxo-1,2,3,6-tetrahydropurin-7-yl)acetamide] |  |
|  |  | ≤ 1000 nM | Cn1c(=O)c2c(ncn2CC(=O)NCCc2ccc(Cl)c(Cl)c2)n(C)c1=O [Compound 396, N-[2-(3,4-Dichlorophenyl)-ethyl]-2-(1,3-dimethyl-2,6-dioxo-1,2,3,6-tetrahydro-purin-7-yl)-acetamide] |  |
|  |  | ≤ 5000 nM | CN(C)c1ccc(CCNC(=O)Cn2cnc3c2c(=O)n(C)c(=O)n3C)cc1 [Compound 397, N-[2-(4-Dimethylaminophenyl)-ethyl]-2-(1,3-dimethyl-2,6-dioxo-1,2,3,6-tetrahydropurin-7-yl)-acetamide] |  |
|  |  | ≤ 10000 nM | Cn1c(=O)c2c(ncn2CC(=O)Nc2ccccc2C2CCCC2)n(C)c1=O [Compound 398, N-(2-cyclopentylphenyl)-2-(1,3-dimethyl-2,6-dioxo-1,2,3,6-tetrahydropurin-7-yl)acetamide] |  |
|  |  | ≤ 1000 nM | Cc1ccc(CCNC(=O)Cn2cnc3c2c(=O)n(C)c(=O)n3C)cc1 [Compound 400, 2-(1,3-Dimethyl-2,6-dioxo-1,2,3,6-tetrahydro-purin-7-yl)-N-(2-p-tolyl-ethyl)-acetamide] |  |
|  |  | ≤ 5000 nM | COc1ccc(CCCNC(=O)Cn2cnc3c2c(=O)n(C)c(=O)n3C)cc1 [Compound 401, 2-(1,3-Dimethyl-2,6-dioxo-1,2,3,6-tetrahydropurin-7-yl)-N-[3-(4-methoxy-phenyl)-propyl]-acetamide] |  |
|  |  | ≤ 5000 nM | Cn1c(=O)c2c(ncn2CC(=O)Nc2ccc(C(C)(C)O)cc2)n(C)c1=O [Compound 402, 2-(1,3-dimethyl-2,6-dioxo-1,2,3,6-tetrahydropurin-7-yl)-N-(4-(2-hydroxypropan-2-yl)phenyl)acetamide] |  |
|  |  | > 10000 nM | COc1ccccc1CCNC(=O)Cn1cnc2c1c(=O)n(C)c(=O)n2C [Compound 403, N-(2-methoxyphenethyl)-2-(1,3-dimethyl-2,6-dioxo-1,2,3,6-tetrahydropurin-7-yl)acetamide] |  |
|  |  | ≤ 1000 nM | Cn1c(=O)c2c(ncn2CC(=O)NCCc2ccccc2F)n(C)c1=O [Compound 404, N-(2-fluorophenethyl)-2-(1,3-dimethyl-2,6-dioxo-1,2,3,6-tetrahydropurin-7-yl)acetamide] |  |
|  |  | ≤ 10000 nM | Cn1c(=O)c2c(ncn2CC(=O)NCCc2ccccc2Cl)n(C)c1=O [Compound 405, N-(2-chlorophenethyl)-2-(1,3-dimethyl-2,6-dioxo-1,2,3,6-tetrahydropurin-7-yl)acetamide] |  |
|  |  | ≤ 10000 nM | Cc1ccccc1CCNC(=O)Cn1cnc2c1c(=O)n(C)c(=O)n2C [Compound 406, N-(2-methylphenethyl)-2-(1,3-dimethyl-2,6-dioxo-1,2,3,6-tetrahydropurin-7-yl)acetamide] |  |
|  |  | ≤ 10000 nM | Cc1cccc(CCNC(=O)Cn2cnc3c2c(=O)n(C)c(=O)n3C)c1 [Compound 407, 2-(1,3-Dimethyl-2,6-dioxo-1,2,3,6-tetrahydropurin-7-yl)-N-[2-(3-methyl-phenyl)-ethyl]-acetamide] |  |
|  |  | ≤ 5000 nM | COc1cccc(CCNC(=O)Cn2cnc3c2c(=O)n(C)c(=O)n3C)c1 [Compound 408, 2-(1,3-Dimethyl-2,6-dioxo-1,2,3,6-tetrahydropurin-7-yl)-N-[2-(3-methoxy-phenyl)-ethyl]acetamide] |  |
|  |  | ≤ 10000 nM | Cn1c(=O)c2c(ncn2CC(=O)NCCc2ccc(C#N)cc2)n(C)c1=O [Compound 409, N-[2-(4-Cyanophenyl)-ethyl]-2-(1,3-dimethyl-2,6-dioxo-1,2,3,6-tetrahydro-purin-7-yl)-acetamide] |  |
